Eight molecules from patent US11247966B2, “4-(p-trifluoromethylbenzyl)-3-fluoro-1,2,4-triphenylamine derivative and pharmaceutical composition and applications thereof” (HEBEI MEDICAL UNIVERSITY, priority 2018, dated 2022) can be followed below.

Molecules are shown by their SMILES. Like-named read-outs stand apart in the source and are kept apart here.

Series [1] concerns the target KCNQ2/3 (Kv7.2/7.3) (Homo sapiens, UniProt O43525+O43526). In words: Electrophysiological patch clamp determination, KCNQ2/3. Format: cell-based. The conditions noted are these: whole-cell patch clamp, CHO cells; read-out: EC50 value, activation of KCNQ2/3 (Kv7.2/7.3). How it is done:
(§1) CHO cells culture: CHO cells with stable KCNQ channels are cultured in a DMEM culture solution containing 10% fetal bovine serum, 100 U/ml penicillin and streptomycin, and then digested and passaged by pancreatin. The cells are placed on a 12 mm round cover glass and cultured in a 24-well plate.
(§2) Cell membrane current record by patch clamp technique: HEKA-EPC10 is used as a patch clamp amplifier. Amphotericin B (final concentration of 0.1-0.2 mg/ml) is used in the electrode to record the perforation patch clamp. After polishing, the microelectrode is filled with an electrode inner fluid, and the resistance value is controlled to be 2-4 MΩ. The electrode inner fluid used for recording CHO cells is (mM): KCl 160, HEPES 5, MgCl2 3, CaCl2 1 and EGTA 3, and the pH is adjusted to 7.4 with KOH. The components of the extracellular fluid are (mM): NaCl 160, KCl 2.5, HEPES 10, glucose 8, MgCl2 1 and CaCl2 5. After forming a giant resistance seal between the microelectrode and the cell membrane, the current is recorded under voltage clamping.

The target of series [2] is KCNQ2/3 channels (Homo sapiens, UniProt O43525+O43526). In words: High-throughput determination of Rb+ efflux by atomic absorption spectrometry. Format: cell-based. From the text:
The determination technique of Rb^+ efflux by AAS is safer and faster in high-throughput screening of potassium channel regulators, and has the characteristics of directly reflecting the activity of ion channels and the regulatory role of regulators. Rb has a similar atomic size to K, and the potassium channel is permeable to Rb^+, the opening or closing of the potassium channel can be determined by measuring the concentration of Rb^+ efflux. Rb has a specific atomic absorption at 780 nm and the Rb^+ concentration can be measured by AAS. Therefore, AAS can be used to screen potassium channel openers or shutters by the high-throughput determination technique for measuring Rb^+ efflux.
Chinese hamster ovary (CHO) cells with stable KCNQ2/3 channels in logarithmic growth phase are inoculated on a 96-well plate at a density of 2×10^4 cells/well. Three wells are provided for each concentration. Solvent control wells having the corresponding concentrations are arranged. After adherent growth overnight, the culture medium is discarded, and 200 μl of a loading buffer containing RbCL is added, and culturing is performed at 37° C. and under 5% CO2 for 3 h. The loading buffer is then discarded and washing is performed 3 times with a wash buffer. To screen the channel opener, the compound to be tested is diluted in a depolarizing buffer and 200 μl of the above solution is added into the cells and reacted for 10 min. After incubation for 10 min, 200 μl of a supernatant is carefully transferred into another 96-well plate. Rb^+ atomic absorption at 780 nm is determined by an ICR8000 atomic absorption spectrometer. The relative efflux is calculated according to the formula Fsupern=(Rb_supern/cpd/Rb_supern/d)*100.

The subject of series [3] is Kunming mice. In words: Maximum electroshock seizure (MES) experimental model. Format: in vivo. As for the experimental part:
Methods: Kunming mice, male, 18-22 g, are placed in the experimental environment 3 days before the experiment to make them adapt to the environment, eat and drink freely; the room temperature is 23-25° C.
The experimental instrument is YLS-9A physiological and pharmacological electronic stimulator: continuous wave output; wave width of 20 ms; gap of 10 ms; wave number of 70; voltage of 60 V; current limit of 3.5 mA.
Methods: 24 hours before the formal experiment, the mice are screened, the stimulator is set according to the above parameters, the mouse ears are clamped with crocodile clip of the stimulator, and the stimulation is started. The ankylosis of the hind limbs of the mice is taken as a positive index to screen the qualified (positive) mice and eliminate the substandard mice. In the formal experiment, the grouping is randomly performed with 10 mice in each group according to the experimental scheme, and the electrical stimulation is carried out. If no ankylosis is found in the hind limbs, it is effective (positive).

In series [4] the target is KCNQ4 (Kv7.4) (Homo sapiens, UniProt P56696). In words: Electrophysiological patch clamp determination, KCNQ4. Format: cell-based. The note with it: CHO cells. How it is done: as §1, §2
For series [5], the system named is KM mice. In words: Pentylenetetrazole (PTZ)-induced epilepsy model. Format: in vivo. The conditions noted are these: PTZ 85 mg/kg s.c. As for the experimental part: Experimental conditions: room temperature 25±1° C.
Experimental animals: KM mice, half male and half female, weighing 18-25 g, 10-12 mice in each group, adapt to the environment for 3 days and eat and drink freely.
Methods: the day before the experiment, each animal is labeled to ensure that the determination time of each animal after administration is consistent. The experimental animals fast for more than 8 h the night before the experiment. […] After the drugs are absorbed, the model is made by the subcutaneous administration of 85 mg/kg PTZ (administration volume of 0.1 ml/10 g) body weight to the neck and back. After PTZ administration, time is counted and the model is put into the transparent observation box in time to keep the environment quiet. The seizure threshold and the number of non-seizure animals are recorded. […] The seizure threshold and the rate of non-death mice (i.e. protective rate) within 12 h after constructing the mold are compared.

[6] abbreviates: Rb+ efflux by AAS, CHO cells with stable KCNQ2/3 channels, read-out: KCNQ2/3 EC50.
Setting [7] is: intraperitoneal 1 mg/kg body weight.

Sequence of KCNQ2/3 channels (O43525 whole entry): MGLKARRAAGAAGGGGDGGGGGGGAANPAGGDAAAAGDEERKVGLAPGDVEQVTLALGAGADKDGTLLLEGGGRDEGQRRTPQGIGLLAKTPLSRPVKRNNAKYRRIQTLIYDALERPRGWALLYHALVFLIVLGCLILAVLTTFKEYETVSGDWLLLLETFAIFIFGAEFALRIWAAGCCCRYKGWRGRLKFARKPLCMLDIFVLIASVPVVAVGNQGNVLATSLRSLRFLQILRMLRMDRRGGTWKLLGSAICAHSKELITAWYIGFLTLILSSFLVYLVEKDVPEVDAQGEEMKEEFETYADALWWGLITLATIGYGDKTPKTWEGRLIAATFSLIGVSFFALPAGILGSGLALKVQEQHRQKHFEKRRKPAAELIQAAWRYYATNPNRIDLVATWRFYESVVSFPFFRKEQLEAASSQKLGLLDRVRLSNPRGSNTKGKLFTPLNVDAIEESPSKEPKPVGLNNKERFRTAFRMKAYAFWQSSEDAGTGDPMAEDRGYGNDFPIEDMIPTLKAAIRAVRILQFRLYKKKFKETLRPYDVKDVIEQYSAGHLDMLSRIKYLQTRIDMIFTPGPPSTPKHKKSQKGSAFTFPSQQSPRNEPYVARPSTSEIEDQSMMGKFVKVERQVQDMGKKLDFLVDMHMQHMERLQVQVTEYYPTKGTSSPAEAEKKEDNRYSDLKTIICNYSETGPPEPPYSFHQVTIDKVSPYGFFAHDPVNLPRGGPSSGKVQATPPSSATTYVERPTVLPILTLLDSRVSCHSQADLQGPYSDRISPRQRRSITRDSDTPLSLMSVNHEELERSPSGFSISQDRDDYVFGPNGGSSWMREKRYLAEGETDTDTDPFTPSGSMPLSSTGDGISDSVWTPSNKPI
Sequence of KCNQ2/3 channels (O43526 whole entry): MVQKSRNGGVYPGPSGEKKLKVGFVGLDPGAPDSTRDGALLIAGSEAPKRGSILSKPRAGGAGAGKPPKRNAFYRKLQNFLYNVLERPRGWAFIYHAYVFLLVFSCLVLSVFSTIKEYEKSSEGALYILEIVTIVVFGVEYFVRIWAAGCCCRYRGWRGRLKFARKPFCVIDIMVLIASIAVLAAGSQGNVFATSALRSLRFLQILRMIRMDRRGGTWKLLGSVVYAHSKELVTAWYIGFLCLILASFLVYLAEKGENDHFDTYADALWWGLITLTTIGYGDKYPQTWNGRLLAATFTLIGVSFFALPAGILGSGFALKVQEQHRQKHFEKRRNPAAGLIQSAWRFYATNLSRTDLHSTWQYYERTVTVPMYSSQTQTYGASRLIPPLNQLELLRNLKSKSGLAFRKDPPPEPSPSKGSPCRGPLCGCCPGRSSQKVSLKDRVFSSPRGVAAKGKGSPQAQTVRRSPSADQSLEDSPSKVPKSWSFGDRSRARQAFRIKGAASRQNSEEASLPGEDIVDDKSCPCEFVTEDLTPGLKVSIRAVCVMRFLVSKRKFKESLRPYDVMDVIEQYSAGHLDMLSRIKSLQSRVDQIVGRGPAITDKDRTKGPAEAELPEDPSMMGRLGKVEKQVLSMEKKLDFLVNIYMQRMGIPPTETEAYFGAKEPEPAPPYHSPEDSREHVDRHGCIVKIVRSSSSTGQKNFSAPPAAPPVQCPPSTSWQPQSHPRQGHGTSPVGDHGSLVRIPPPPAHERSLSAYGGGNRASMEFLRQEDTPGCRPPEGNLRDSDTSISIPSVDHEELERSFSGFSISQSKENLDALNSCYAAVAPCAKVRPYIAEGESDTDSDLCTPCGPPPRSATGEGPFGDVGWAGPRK

`Nc1c(NC(=O)CCC2CCCC2)ccc(NCc2ccc(C(F)(F)F)cc2)c1F` [Compound 1, N-(2-amino-3-fluoro-4-(4-trifluoromethylbenzylamino)-phenyl)-cyclopentyl propionamide]: the EC50 in series [1] is 380 ± 100 nM; in series [2] (setting [6]) it was 150 ± 40 nM. In addition, the “effective rate (no ankylosis of hind limbs)” value in series [3] (setting [7]) came out at 100%. Besides, the “opening activity to KCNQ4 (Kv7.4)” value in series [4] was “relatively small”. Also, the “protective rate (non-death mice within 12 h)” value in series [5] (3 mg/kg body weight i.p.) and in series [5] (5 mg/kg body weight i.p.) was 100% in each case. Further, the seizure threshold turned out to be 867.21 ± 152.51 s in series [5] (3 mg/kg body weight i.p.) and 1185.96 ± 134.28 s in series [5] (5 mg/kg body weight i.p.).

As for `CC(C)(C)CC(=O)Nc1ccc(NCc2ccc(C(F)(F)F)cc2)c(F)c1N` [Compound 2, N-(2-amino-3-fluoro-4-(4-trifluoromethylbenzylamino)-phenyl)-3,3-dimethyl Butyramide], the EC50 in series [2] (setting [6]) came to 210 ± 80 nM. The “effective rate (no ankylosis of hind limbs)” value in series [3] (setting [7]) was 90%.

With `Nc1c(NC(=O)C2CCCC2)ccc(NCc2ccc(C(F)(F)F)cc2)c1F` [Compound 3, N-(2-amino-3-fluoro-4-(4-trifluoromethylbenzylamino)-phenyl)-cyclopentyl Formamide], the melting point fell in the range of 222.9 to 223.5 °C. In addition, the EC50 in series [2] (setting [6]) amounted to 2830 ± 210 nM.

For the molecule `Nc1c(NC(=O)CC2CCCC2)ccc(NCc2ccc(C(F)(F)F)cc2)c1F` [Compound 4, N-(2-amino-3-fluoro-4-(4-trifluoromethylbenzylamino)-phenyl)-cyclopentyl Acetamide], the melting point was in the range of 196.9 to 197.5 °C. Also, the EC50 in series [2] (setting [6]) was 580 ± 130 nM.

Turning to `Nc1c(NC(=O)CCN2CCCCC2)ccc(NCc2ccc(C(F)(F)F)cc2)c1F` [Compound 5, N-(2-amino-3-fluoro-4-(4-trifluoromethylbenzylamino)-phenyl)-3-piperidinyl-1-propionamide], the melting point fell in the range of 202.1 to 203.5 °C. For the same molecule, the EC50 in series [2] (setting [6]) came out at 750 ± 120 nM.

For `Nc1c(NC(=O)CCc2ccco2)ccc(NCc2ccc(C(F)(F)F)cc2)c1F` [Compound 6, N-(2-amino-3-fluoro-4-(4-trifluoromethylbenzylamino)-phenyl)-3-furanyl-2-propanamide], the melting point fell in the range of 212.2 to 213.5 °C. For the same molecule, the EC50 in series [2] (setting [6]) came to 3580 ± 730 nM.

Take `Nc1c(NC(=O)CCCc2ccccc2)ccc(NCc2ccc(C(F)(F)F)cc2)c1F` [Compound 7]: the melting point lay within 198.5 to 199.5 °C. The EC50 in series [2] (setting [6]) amounted to 5260 ± 820 nM.

In the case of `CCOC(=O)Nc1ccc(NCc2ccc(F)cc2)cc1N` [RTG, Retigabine, reference compound], in series [2], the EC50 turned out to be 860 ± 180 nM. Also, in series [3] (intraperitoneal 10 mg/kg body weight), the “effective rate (no ankylosis of hind limbs)” value came out at 80%. Moreover, in series [5] (15 mg/kg body weight i.p.), the “protective rate (non-death mice within 12 h)” value worked out at 50% and the seizure threshold amounted to 858.17 ± 528.48 s.
